Test results taken from US9572787B2, “Inhibition of renal fibrosis” (Rhode Island Hospital, priority 2011, dated 2017).
Where two headings read alike, the source gives them in different places.

What was measured:
NRK-49F cells [1] = assay: Delayed suramin treatment of TGF-β1-pretreated renal interstitial fibroblasts; type: cell-based, rat; conditions: TGF-β1 pretreatment 24 and 48 h, then suramin 100 μM for additional 24 and 48 h with TGF-β1
Protocol: At 48 h after pretreatment with TGF-β1, expression of α-SMA and fibronectin was induced, which is similar to the in-vivo situation.

NRK-49F cells [2] = assay: Serum (5% FBS)-stimulated activation and kinase phosphorylation in renal interstitial fibroblasts (immunoblot); type: cell-based, rat; conditions: 36 h, suramin 100 μM
Protocol: (§1) Cell Culture and Treatments. NRK-49F cells were cultured in Dulbecco's modified eagle's medium (DMEM) (Sigma-Aldrich, St. Louis, Mo.) containing 5% fetal bovine serum (FBS), 0.5% penicillin and streptomycin in an atmosphere of 5% CO2 and 95% air at 37° C. […] For TGF-β1 treatment, NRK-49F were starved for 24 h by incubation with 0.5% FBS containing DMEM and then exposed to TGF-β1 (0.5-2 ng/ml) for 24 h.
(§2) Immunoblot Analysis. Immunoblot analysis of NRK-49F cells and tissue samples were conducted as described previously. The densitometry analysis of immunoblot results was conducted by using NIH Image software (National Institutes of Health, Bethesda, Md.).

NRK-49F cells [3] = assay: TGF-β1-induced activation of renal interstitial fibroblasts (immunoblot); type: cell-based, rat; conditions: 2 ng/ml TGF-β1, 24 h
Protocol: as §1, §2

obstructive kidney (UUO) = assay: UUO obstructive nephropathy model, single dose of suramin immediately after ureteral ligation; type: in vivo, mouse
Protocol: UUO and Remnant Kidney Models and Suramin Treatment. The UUO model was established in male C57 back mice that weighed 20-25 g (Jackson Laboratory, Bar Harbor, Me.) as described in our previous study. Briefly, the abdominal cavity was exposed via a midline incision and the left ureter was isolated and ligated. The contralateral kidney was used as controls. […] Six mice were used in each group.
as §2
Immunofluorescent and Immunohistochemical Staining Immunofluorescent and immunohistochemical staining was performed according to the procedure described in our previous studies. For assessment of renal fibrosis, masson trichrome staining was performed according to the protocol provided by the manufacture (Sigma, St. Louis, Mo.). The collagen tissue area (blue color) was quantitatively measured using Image Pro-Plus software (Media-Cybernetics, Silver Spring, Md., USA) by drawing a line around the perimeter of positive staining area, and the average ratio to each microscopic field (400×) was calculated and graphed.
Quantitative Real-Time PCR. The procedure for quantitative qRT-PCR and the primers used for all measurements have been described previously. Briefly, total RNA from mouse kidney tissue was extracted using RNeasy Kit (QIAGEN, Valencia, Calif.). RNA (1 μg) was reverse transcribed using the AMV First Strand cDNA synthesis kit (Roche Diagnostics Corporation, Indianapolis, Ind.) and random oligodeoxynucleotide primers. Then, real time qRT-PCR amplifications were performed. Relative mRNA abundance was determined from the nanogram ratios of specific mRNA to 18S ribosomal RNA measured in the same samples, and fold change was calculated relative to the group of sham-operated mice with vehicle treatment. Template-free reactions for each pair of primers were also included as controls.

[4] = in the body, cited from earlier work
remnant kidney = assay: Remnant kidney model (5/6 nephrectomy), suramin treatment; type: in vivo, rat
Source text: The remnant kidney model was created in male Sprague-Dawley rats that weighed 180 to 200 g (Charles River Laboratories, Wilmington, Mass.). 5/6 of normal renal mass was surgically ablated according to our previous protocols. Briefly, 20 animals underwent subtotal nephrectomy involving right subcapsular nephrectomy and infarction of approximately two-thirds of the left kidney by ligation of the posterior and one or two anterior extrarenal branches of the renal artery. In addition, 12 rats underwent a sham operation (laparotomy and manipulation of the renal pedicles). On the second week after surgery, rats were randomly divided into suramin treatment and non-treatment groups. […] 24-hour urine samples were collected in metabolic cages at day 0 and weekly for the determination of urinary levels of protein. Blood was taken weekly for the measurement of serum creatinine. At 28 days after surgery, mean blood pressure was measured, and then all animals were sacrificed and kidneys were collected for further analysis. Assessment of Renal Function and Measurement of Blood Pressure. Urinary protein concentrations were determined by using the colorimetric Lowry assay. Serum creatinine was analyzed using a creatinine kit (Sigma). Mean blood pressure was determined via a catheter inserted into the femoral artery attached to the Transonic Systems pressure transducer (Transonic Systems Inc. Ithaca, N.Y.) in anesthetized rats at the end of experiment. Immunoblot Analysis. Immunoblot analysis of NRK-49F cells and tissue samples were conducted as described previously. The densitometry analysis of immunoblot results was conducted by using NIH Image software (National Institutes of Health, Bethesda, Md.). Immunofluorescent and Immunohistochemical Staining Immunofluorescent and immunohistochemical staining was performed according to the procedure described in our previous studies. For assessment of renal fibrosis, masson trichrome staining was performed according to the protocol provided by the manufacture (Sigma, St. Louis, Mo.). The collagen tissue area (blue color) was quantitatively measured using Image Pro-Plus software (Media-Cybernetics, Silver Spring, Md., USA) by drawing a line around the perimeter of positive staining area, and the average ratio to each microscopic field (400×) was calculated and graphed.

[5] = 1 mg/kg i.p. single dose, day 7
[6] = 5 mg/kg i.p. single dose, day 7
[7] = 10 mg/kg i.p. single dose, day 7
[8] = 20 mg/kg i.p. single dose, 21 days after UUO injury
[9] = 10 mg/kg once per week for two weeks
[10] = 10 mg/kg once per week for two weeks, from week 2 after surgery

Question: Which results are given for `Cc1ccc(C(=O)Nc2ccc(S(=O)(=O)O)c3cc(S(=O)(=O)O)cc(S(=O)(=O)O)c23)cc1NC(=O)c1cccc(NC(=O)Nc2cccc(C(=O)Nc3cc(C(=O)Nc4ccc(S(=O)(=O)O)c5cc(S(=O)(=O)O)cc(S(=O)(=O)O)c45)ccc3C)c2)c1` [Suramin]?
Answer: TGF-β1-induced fibronectin expression (NRK-49F cells [1]): suppressed further increase; TGF-β1-induced α-SMA expression (NRK-49F cells [1]): suppressed further increase; phosphorylation of EGFR (NRK-49F cells [2]): complete inhibition; phosphorylation of ERK1/2 (NRK-49F cells [2]): complete inhibition; phosphorylation of PDGFR (NRK-49F cells [2]): complete inhibition; phosphorylation of STAT3 (NRK-49F cells [2]): complete inhibition; serum-induced fibronectin expression (NRK-49F cells [2]): complete blockade; serum-induced α-SMA expression (NRK-49F cells [2]): complete blockade; TGF-β1 induced phosphorylation of Smad2 (NRK-49F cells [3]): abolished; TGF-β1 induced phosphorylation of Smad3 (NRK-49F cells [3]): abolished; TGF-β1-induced fibronectin expression (NRK-49F cells [3]; in the presence of suramin): abolished; TGF-β1-induced α-SMA expression (NRK-49F cells [3]; in the presence of suramin): suppressed to the basal level; fibronectin expression in kidney (obstructive kidney (UUO); [5]): slight reduction; α-SMA expression in kidney (obstructive kidney (UUO); [5]): slight reduction; fibronectin expression in kidney (obstructive kidney (UUO); [6]): further inhibition; α-SMA expression in kidney (obstructive kidney (UUO); [6]): further inhibition; collagen 1 expression in kidney (obstructive kidney (UUO); 5 mg/kg single dose, day 7): observed effect; fibronectin expression in kidney (obstructive kidney (UUO); [7]): complete blockade; α-SMA expression in kidney (obstructive kidney (UUO); [7]): significant, but incomplete, suppression; collagen 1 expression in kidney (obstructive kidney (UUO); 10 mg/kg single dose, day 7): greater inhibition; suppression of fibronectin expression in kidney (obstructive kidney (UUO); [8]): approximately 50%; suppression of α-SMA expression in kidney (obstructive kidney (UUO); [8]): approximately 50%; EGF receptor phosphorylation (obstructive kidney (UUO); 20 mg/kg single dose, day 7): abolished; ICAM-1 mRNA expression (obstructive kidney (UUO); 20 mg/kg single dose, day 7): decreased; IL-1β mRNA expression (obstructive kidney (UUO); 20 mg/kg single dose, day 7): decreased; PDGF receptor phosphorylation (obstructive kidney (UUO); 20 mg/kg single dose, day 7): abolished; TGF-β1 mRNA expression reduced to (real-time PCR) (obstructive kidney (UUO); 20 mg/kg single dose, day 7): 45%; TGF-β1 type I receptor mRNA expression (obstructive kidney (UUO); 20 mg/kg single dose, day 7): suppressed its basal expression; TGF-β type II receptor mRNA expression reduced to (real-time PCR) (obstructive kidney (UUO); 20 mg/kg single dose, day 7): 94%; TNF-α mRNA expression (obstructive kidney (UUO); 20 mg/kg single dose, day 7): decreased; UUO injury-induced phosphorylation of Smad2 (obstructive kidney (UUO); 20 mg/kg single dose, day 7): abolished; UUO injury-induced phosphorylation of Smad3 (obstructive kidney (UUO); 20 mg/kg single dose, day 7): abolished; collagen 1 expression in kidney (obstructive kidney (UUO); 20 mg/kg single dose, day 7): reduced its expression to the basal level; expression level of total ERK1/2 (obstructive kidney (UUO); 20 mg/kg single dose, day 7): did not affect; expression level of total STAT3 (obstructive kidney (UUO); 20 mg/kg single dose, day 7): did not affect; expression of total EGF receptor (obstructive kidney (UUO); 20 mg/kg single dose, day 7): did not have an inhibitory effect; expression of total PDGF receptor (obstructive kidney (UUO); 20 mg/kg single dose, day 7): did not have an inhibitory effect; expression of total Smad2 (obstructive kidney (UUO); 20 mg/kg single dose, day 7): not affected; expression of total Smad3 (obstructive kidney (UUO); 20 mg/kg single dose, day 7): not affected; leukocyte infiltration (naphthol-AS-D-chloroacetate esterase staining) (obstructive kidney (UUO); 20 mg/kg single dose, day 7): reduced leukocyte infiltration to basal levels; morphological lesions and interstitial fibrosis (masson trichrome staining) (obstructive kidney (UUO); 20 mg/kg single dose, day 7): obvious attenuation; phosphorylation of ERK1/2 (obstructive kidney (UUO); 20 mg/kg single dose, day 7): abolished; phosphorylation of STAT3 (obstructive kidney (UUO); 20 mg/kg single dose, day 7): abolished; collagen 1 expression in kidney (obstructive kidney (UUO); 20 mg/kg single dose, day 21): partially suppressed; α-SMA expression in kidney (obstructive kidney (UUO); 20 mg/kg vs 10 mg/kg i.p. single dose, day 7): did not further reduce; effective doses of suramin (obstructive kidney (UUO); applicant's UUO and remnant kidney studies): 5 to 10 mg/kg; half life [4]: 21 days; half life ([4]; listed as suramin): at least 21 days; de novo expression of fibronectin in the remnant kidney (remnant kidney; [9]): abolished; de novo expression of α-SMA in the remnant kidney (remnant kidney; [9]): abolished; increased expression of type 1 collagen in the remnant kidney (remnant kidney; [9]): abolished; 24-hour proteinuria (remnant kidney; [10]): significantly reduced; serum creatinine (remnant kidney; [10]): significantly reduced; hypertension (mean blood pressure) (remnant kidney; 10 mg/kg once per week for two weeks, day 28): not significantly affected; kidney histology (glomerular and tubulointerstitial damage) (remnant kidney; 10 mg/kg once per week for two weeks, week 4): preserved kidney architecture and prevented the glomerular and tubulointerstitial damage; pathological changes in the kidney (remnant kidney; suramin alone-treated (sham-operated) animals): no obvious pathological changes
